Legend:
[1] = tested on: A549; assay: Cytotoxicity against human A549 cells; type: functional
[2] = tested on: MCF7; assay: Cytotoxicity against human MCF7 cells; type: functional
[3] = tested on: HT-29; assay: Cytotoxicity against human HT-29 cells; type: functional
[4] = tested on: Artemia; assay: Toxicity in brine shrimp; type: organism-based

Structure (SMILES)	ED50 [1] [×10⁻⁴ ug/ml]	ED50 [2] [×10⁻⁴ ug/ml]	ED50 [3] [×10⁻⁴ ug/ml]	EC50 ([1]; Homo sapiens, A549, read-out: ED50 (the source's name)) [µg/mL]	EC50 ([2]; Homo sapiens, MCF7, read-out: ED50 (the source's name)) [µg/mL]	EC50 ([3]; Homo sapiens, HT-29, read-out: ED50 (the source's name)) [µg/mL]	IC50 [4] [ppm]
COc1cccc2c1C(=O)c1c(O)c3c(c(O)c1C2=O)C[C@@](O)(C(=O)CO)C[C@@H]3O[C@H]1C[C@H](N)[C@H](O)[C@H](C)O1 [DOXORUBICIN]	4.09	1.05	1.12				
O=C1OC[C@@H]2Cc3cc4c(cc3[C@@H](c3ccc5c(c3)OCO5)[C@H]12)OCO4 [PICROPOLYGAMAIN]				< 0.01	< 0.01	< 0.01	52.2

— ChEMBL document CHEMBL1150065, “Isolation of picropolygamain from the resin of Bursera simaruba” (J Nat Prod, 1992)
